# Measurements: US20040038855A1 (priority 1999, published 2004)
# pKi: −log10 of the molar value.
# Target: T1, human dopamine D4 receptor (Homo sapiens, UniProt P21917)
# T1 construct: purchased BioSignal, Inc. (Montreal, Canada)
# Test: Binding affinity at the human dopamine D4 receptor
# Details: Table 3d; * = >50000; read-out: hD4 Ki
# Description: Other receptors: Cell membranes expressing human dopamine D1, D2, D4 and rat D3 receptors were purchased through BioSignal, Inc. (Montreal, Canada). Binding assays using the histamine H1 receptor; dopamine receptors; and α1A, α1B, and α2 adrenergic receptors may be carried out according to the procedures described in U.S. Pat. No. 5,780,485, the disclosure of which is hereby incorporated by reference in its entirety into this application. Binding assays using the dopamine D5 receptor may be carried out according to the procedures described in U.S. Pat. No. 5,882,855, the disclosure of which is hereby incorporated by reference in its entirety into this application. Binding assays for the human α1D adrenergic receptor may be carried out according to the procedures described in U.S. Pat. No. 6,156,518, the disclosure of which is hereby incorporated by reference in its entirety into this application.
# T1 sequence (P21917 whole entry): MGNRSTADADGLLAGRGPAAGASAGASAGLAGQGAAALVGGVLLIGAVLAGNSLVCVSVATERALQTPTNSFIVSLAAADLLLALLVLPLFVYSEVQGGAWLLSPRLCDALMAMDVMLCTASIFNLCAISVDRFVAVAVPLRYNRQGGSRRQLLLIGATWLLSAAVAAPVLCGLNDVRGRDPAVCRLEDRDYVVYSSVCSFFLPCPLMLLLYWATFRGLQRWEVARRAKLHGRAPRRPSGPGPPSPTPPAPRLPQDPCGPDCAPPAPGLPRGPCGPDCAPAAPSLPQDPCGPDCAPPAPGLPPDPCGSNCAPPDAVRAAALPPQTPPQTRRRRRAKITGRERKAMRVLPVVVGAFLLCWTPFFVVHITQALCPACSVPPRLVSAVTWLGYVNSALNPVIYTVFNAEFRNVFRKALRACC
compound,measurement,value
"COCC1=C(C(=O)OC)[C@H](c2ccc(F)c(F)c2)N(C(=O)NCCCN2CCC(c3cccc(NC(C)=O)c3)CC2)C(=O)N1 [Example 10, (+)-1,2,3,6-TETRAHYDRO-1-{N-[4-(3,-ACETAMIDO)-PHENYLPIPERIDIN-1-YL]PROPYL}CARBOXAMIDO-4-METHOXYMETHYL-6-(3,4-DIFLUORO-PHENYL)-2-OXOPYRIMIDINE-5-CARBOXYLIC ACID METHYL ESTER]",pKi,< 4.30
